Assay results from patent US8980323B2, “Hydrophilic matrix containing poorly water-soluble compound and method for producing the same” (FUJIFILM Corporation, priority 2006, dated 2015).
In brackets after ≈: the same amount, converted by molar mass. Where two headings read alike, the source gives them in different places.

Assays:
[1] = Solubility in 1,1,1,3,3,3-hexafluoro-2-propanol (HFIP); conditions: for solubility: 1,1,1,3,3,3-hexafluoro-2-propanol (HFIP), organic solvent or mixture, thermodynamic from solid
Description: The solubility in hexafluoroisopropanol is determined as described below according to the present invention. A mixture is prepared by adding a compound to 1,1,1-3,3,3-hexafluoro-2-propanol while changing the concentration of the compound in a stepwise manner, and the concentration at which precipitation takes place is examined. Thus, the solubility of the compound in 1,1,1-3,3,3-hexafluoro-2-propanol is determined. In addition, a soluble/insoluble state is determined by confirming the presence of a deposit after centrifugation of the above mixture with a micro centrifuge (Chibitan II XX42CF00T produced by Tech-Jam) for 20 seconds.

[2] = Stereo-microscopic observation of drug-containing hydrophilic matrix films and gels (finely-dispersed state / precipitation); type: physicochemical; set-up: key: ∘: contained in a finely-dispersed state; Δ: partially precipitated; conditions: gelatin film cast from HFIP, stereo microscope; for State of drug in gelatin film, Drug/gelatin mass proportion 0.1%: drug/gelatin 0.1%; for State of drug in gelatin film, Drug/gelatin mass proportion 1.0%: drug/gelatin 1.0%; for State of drug in gelatin film, Drug/gelatin mass proportion 5.0%: drug/gelatin 5.0%
Description: The term “in a finely-dispersed state” used herein refers to a condition in which the contained poorly water-soluble drug, which is a compound of a size that cannot be detected with a stereo microscope (MZ16A produced by Leica), is uniformly dispersed in a matrix, or a condition in which such a drug is in a molecular dispersion state in a matrix.
Paclitaxel (produced by LCL laboratories) was used as a poorly water-soluble compound. […] 1,1,1,3,3,3-hexafluoro-2-propanol solution (HFIP; 200 μL) containing paclitaxel (1 mg/mL) and gelatin (100 mg/mL; PSK gelatin produced by Nippi Inc.) was coated on a polypropylene dish (2 cm×2 cm×500 μm), followed by drying at an ordinary temperature for 15 hours. Thus, a paclitaxel-containing gelatin film was produced.
Upon observation with a stereo microscope (produced by Leica, MZ16A), precipitation of paclitaxel was not observed. […] In addition, the gel produced with HFIP and subjected to crosslinking with transglutaminase and water swelling was transparent.
Observation was carried out in the same manner as in Example 2.
Drug-containing gelatin films were produced in the same manner as in Example 1 except that paclitaxel used in Example 1 was replaced by drugs with concentrations listed in Table 1 below. Observation was carried out in the same manner as in Example 2. […]

[3] = upper dissolution limit - lower precipitation limit, samples at 30, 50, 100, 200, 500 mg/ml

Compound | solubility [1] | State of drug in gelatin film, Drug/gelatin mass proportion 0.1% [2] | State of drug in gelatin film, Drug/gelatin mass proportion 1.0% [2] | State of drug in gelatin film, Drug/gelatin mass proportion 5.0% [2] | Solubility in HFIP [1, 3] | Solubility in HFIP [1]
CC(=O)Oc1ccccc1C(=O)O [Aspirin] | 200 to 500 mg/mL (≈ 1110 to 2780 mM) | ∘ | ∘ | ∘ |  | 
CC12CCC(C(=O)C1=O)C2(C)C (centres unmarked) [Camphorquinone] | 200 to 500 mg/mL (≈ 1200 to 3010 mM) | ∘ | ∘ | ∘ |  | 
CCN(CC)c1ccc2c(C)cc(=O)oc2c1 [Coumarin 1] |  | ∘ | ∘ | ∘ | 200 to 500 mg/mL | 
CCN(CC)c1ccc2cc(-c3nc4ccccc4s3)c(=O)oc2c1 [Coumarin 6] |  | ∘ | Precipitated | Precipitated |  | 30 to 50 mg/mL
CC(=O)O[C@@]12CO[C@@H]1C[C@H](O)[C@@]1(C)C(=O)[C@H](O)C3=C(C)[C@@H](OC(=O)[C@H](O)[C@@H](NC(=O)OC(C)(C)C)c4ccccc4)C[C@@](O)([C@@H](OC(=O)c4ccccc4)[C@H]21)C3(C)C [Docetaxel] | 100 to 200 mg/mL (≈ 124 to 248 mM) | ∘ | ∘ | ∘ |  | 
CN(C)c1ccc(N=Nc2ccccc2)cc1 [Methyl yellow] |  | ∘ | ∘ | Precipitated | 50 to 100 mg/mL | 
CC(=O)O[C@H]1C(=O)[C@@]2(C)[C@H]([C@H](OC(=O)c3ccccc3)[C@]3(O)C[C@H](OC(=O)[C@H](O)[C@@H](NC(=O)c4ccccc4)c4ccccc4)C(C)=C1C3(C)C)[C@]1(OC(C)=O)CO[C@@H]1C[C@@H]2O [Paclitaxel] | 200 to 500 mg/mL (≈ 234 to 586 mM) | ∘ | ∘ | ∘ | 200 to 500 mg/mL | 
O=C1NC(=O)C(c2ccccc2)(c2ccccc2)N1 [Phenytoin] | 50 to 100 mg/mL (≈ 198 to 396 mM) | ∘ | ∘ | Precipitated |  | 
CO[C@H]1C[C@@H]2CC[C@@H](C)[C@@](O)(O2)C(=O)C(=O)N2CCCC[C@H]2C(=O)O[C@H]([C@H](C)C[C@@H]2CC[C@@H](O)[C@H](OC)C2)CC(=O)[C@H](C)/C=C(\C)[C@@H](O)[C@@H](OC)C(=O)[C@H](C)C[C@H](C)/C=C/C=C/C=C/1C [Rapamycin] | 200 to 500 mg/mL (≈ 219 to 547 mM) |  |  |  |  | 
C=C1CC[C@H](O)C/C1=C/C=C1\CCC[C@]2(C)[C@@H]([C@H](C)CCCC(C)C)CC[C@@H]12 [Vitamin D3] |  | ∘ | ∘ | ∘ | 200 to 500 mg/mL | 
